Measurements from US20120251495A1, “PTERIN BASED THERAPIES FOR INFLAMMATORY CONDITIONS” (priority 2008, published 2012).

Legend:
plasma cytokines [1] = assay: Plasma cytokine levels by ELISA (LINCOplex), 1st experiment; type: in vivo, athymic nude (nu/nu) mice; conditions: Table 4, 21 mg/kg/d
Description: Cytokine levels in EDTA plasma from the mice in the 1st experiment were determined by ELISA assay at Alta Analytical Laboratories (San Diego, Calif.) using a LINCOplex Kit (Linco Research). Tryptophan (Trp) and kynurenine (Kyn) concentrations were measured from EDTA plasma samples by high pressure liquid chromatography (HPLC) using 3-nitro-L-tyrosine as the internal standard (Widner et al., 1997). To estimate IDO activity, the kynurenine to tryptophan ratio (Kyn/Trp) was calculated and expressed as μmol kynurenine/mmol tryptophan (Wirleitner, 2003). The values from five mice in the 1st experiment are not included in the summary statistics given in Table 1 for the following reasons. One mouse from each of the four treatment groups was used to test the effects of mega dosing, i.e., with (1:4 mol:mol) calcium pterin at 100 mg/kg/day after Day 60 of treatment, and are excluded. Also excluded was one mouse from the (1:4 mol:mol) calcium pterin (7 mg/kg/day) group which expired suddenly a few days before blood was collected. Cytokine measurements <3.2 pg/ml are reported as n.d. (not detectable) because the standard curves used in the ELISA assays were not calibrated below that level.
Cytokine levels in EDTA plasma from the mice in the 1st experiment were determined by ELISA assay at Alta Analytical Laboratories (San Diego, Calif.) using a LINCOplex Kit (Linco Research).
(§1) Cytokine levels in EDTA plasma from the mice in the 2nd experiment were measured at the UCSD Core Laboratory (San Diego, Calif.) using a multiplex assay kit for IL-1β, IL-2, IL-4, IL-5, IL-10, IL-12, IFN-γ, TNF-α and single ELISA kits for IL-6 and TGF-β1 by R&D Systems. EDTA plasma samples from two of the three ungavaged controls were lost due to handling error. For both the 1st and 2nd experiments, those measured cytokine values falling below the limits of detection were set to the higher assay limit for the purposes of the subsequent statistical analyses, and recorded as n.d. (not detectable) in Tables 1 through 3.

[2] = system: MDA-MB-231 human breast tumor xenographs; assay: Antitumor efficacy in nude mice with MDA-MB-231 xenographs, 1st experiment; type: in vivo, athymic nude (nu/nu) mice; conditions: 21 mg/kg/day
Description: The aims of the 1st experiment were to determine a dose-response curve for the (1:4 mol:mol) calcium pterin suspension, to compare the antitumor activity of this suspension to pterin alone (pterin control), and to test the effect of CaPterin mega-dosing at 100 mg/kg/day. Antitumor efficacy was evaluated in nude mice with MDA-MB-231 human tumor xenographs by Perry Scientific (San Diego, Calif.). In the 1st experiment, twenty-three athymic nude (nu/nu) female mice, ages 3-4 weeks, were purchased from Harlan Sprague Dawley, Inc. (Indianapolis, Ind.). 5×10^6 MDA-MB-231 cancer cells were injected subcutaneously into the right flank of each mouse. When tumors reached 3-5 mm in size, twenty mice were divided into four treatment/control groups of five mice each. The four treatment groups were: (1:4 mol:mol) calcium pterin (7 mg/kg/day); pterin (21 mg/kg/day); (1:4 mol:mol) calcium pterin (21 mg/kg/day); and sterile water control. Two mice with outlying tumor sizes or non-tumor takes were excluded shortly after treatment began: one from the pterin group and one from the control group. […] Only one outlier persisted >4 days, for 14 days. Also excluded from the metabolic analysis in the 1st experiment was one mouse from each of the four experimental groups mega-dosed by oral gavage with 100 mg/kg/day CaPterin for tip to 31 days to test for toxicity. All the other mice in the 1st experiment persisted ≧60 days without complications.
The control mice in the 1st experiment were treated with sterile water while the control mice in the 2nd experiment were untreated to evaluate the effect of mouse handling and gavaging upon tumor growth. Daily dosing was for 7 days per week. Animals were restrained but not anesthetized for oral dosing. Tumors were measured twice weekly with calipers and body weights taken twice weekly on the day of tumor measurements. Blood was collected from all animals via cardiac puncture at termination (after 70 to 98 days of treatment) and processed to EDTA plasma for analysis. Tumor size measurements for the control group in the 2nd experiment on days 4 and 7 were missed due to a technical oversight.
The MDA-MB-231 human breast tumor cell lines were supplied by SRI International (Menlo Park, Calif.) and propagated using standard in vitro cell expansion methods. Briefly, cells were grown in L-15 media from Gibco (Cat. No. 11415-064) supplemented with 2 mM L-Glutamine and 10% Fetal Bovine Serum (FBS). The cells were cultured in an incubator with 5% CO2, 37.5° C., and 80% humidity. Cells were harvested with 0.25% (w/v) Trypsin-0.03% (w/v) EDTA solution. Cells were prepared for injection by standard methods to appropriate concentrations. Animals were temporarily restrained but not anesthetized for the inoculation of the tumor cells. Animals were subcutaneously injected with the tumor cells in a 100-200 μl volume.
Each animal was individually tracked for tumor growth by external caliper measurements of protruding tumor. Primary tumor sizes were measured using calipers and an approximate tumor volume calculated using the formula 1/2 (a×b^2), where b was the smaller of two perpendicular diameters.
For each group, the mean and standard error of the mean (SEM) of the ratio V/Vo, Relative Tumor Volume (RTV), were plotted as a function of treatment time after inoculation. V0 was the tumor volume at Day 0, when treatment began.

[3] = system: MDA-MB-231 xenograph tumors; assay: Combined analysis of DCP + control mice: Day 42,43 relative tumor volume and DCP/APCP; type: in vivo, nude mice; conditions: 25 mg/(kg day); Day 42,43 relative tumor volume; combined data
Description: Standard ANOVA models for group effects, curve fitting, and stepwise regression analyses were carried out using SPSS Graduate Pack 15.0 for Windows (2006), with p<0.05 used to determine significance.
Table 7 gives the plasma cytokine and relative tumor volume Spearman rank order correlations for the 12 DCP+ control mice (Control [n=3; from 1st experiment]; 23 mg/(kg d) DCP [n=5; from 2nd experiment]; and 69 mg/(kg d) DCP [n=4; from 2nd experiment]).
To further determine significant causal and correlational linkages among DCP dosage, plasma cytokine changes, and relative tumor volume, the following curve fitting analyses were carried out with the 12 DCP+ control mice. First, plotting DCP versus Day 42,43 Relative Tumor Volume yielded a significant quadratic relationship (FIG. 11). Second, curve fitting each cytokine versus Day 42,43 Relative Tumor Volume found no significant linear relationship and only one significant quadratic relationship, i.e., with IL-12 (p=0.004; FIG. 12). Third, plotting DCP versus IL-12 yielded a weakly significant quadratic relationship (p=0.048; FIG. 13).
Substantially more significant analogous plots were generated by first carrying out the Table 8 stepwise regression analysis which derived the DCP antitumor plasma cytokine pattern (DCP/APCP), shown to be a more significant cytokine composite measure than IL-12 taken alone. The Table 8 stepwise regression analysis of the cytokine data from the 12 DCP+ control mice allowed for the calculation of DCP/APCP scores for each mouse. These DCP/APCP scores are plotted versus DCP dosage in […], which illustrates the significant quadratic dose-response relationships of DCP versus the derived plasma DCP/APCP composite measure. From this figure the estimated optimum dosage of DCP for maximum tumor growth inhibition is 42 mg/(kg day), while the estimated optimum dosage for maximum DCP/APCP induction is 44 mg/(kg day).

[4] = system: MDA-MB-231 human breast tumor xenographs; assay: Antitumor efficacy in nude mice with MDA-MB-231 xenographs, 2nd experiment; type: in vivo, athymic nude mice; conditions: (1:2) 25, DCP 23 and 69, calcium chloride dihydrate 4.2 mg/kg/day
Description: In the 2nd experiment, twenty-nine athymic nude, also purchased from Harlan Sprague Dawley, Inc. (Indianapolis, Ind.), were each injected subcutaneously with 10×10^6 MDA-MB-231 cancer cells into the right flank. When tumors reached 3-5 mm in size, the mice were divided into five treatment groups of five each and a control group of four mice. […] All the other mice in the 2nd experiment persisted ≧43 days without complications. Experimental groups were treated by oral gavage once daily with the indicated test suspensions or solutions.

plasma cytokines [5] = assay: Plasma cytokine levels (multiplex and single ELISA kits), 2nd experiment; type: in vivo, athymic nude mice; conditions: for IL-5: limit of detection 3.0; for IL-6: limit of detection 3.9; for IL-1β: limit of detection 4.1; for IL-10: limit of detection 24.6
Description: as §1, with “EDTA plasma samples from two of the three ungavaged controls were lost due to handling error.” left out

[6] = 2nd experiment, 25 mg/kg/d, limit of detection 3.2
[7] = 2nd experiment, CaCl2 group, 4.2 mg/kg/day
[8] = 2nd experiment, CaCl2 group, 4.2 mg/kg/day, limit of detection 3.2

Nc1nc2nccnc2c(=O)[nH]1 [Pterin, 2-amino-4(3H)-pteridinone]
IL-12 (plasma cytokines [1]; limit of detection 3.2): 48.5 ± 45.3 pg/mL
TNF-α (plasma cytokines [1]; limit of detection 3.2): 9.0 ± 3.7 pg/mL
IL-1β (plasma cytokines [1]; limit of detection 4.1): 64.6 ± 60.4 pg/mL
IL-6 (plasma cytokines [1]; plasma at sacrifice, limit of detection 3.9): 87.4 ± 11.0 pg/mL
antitumor activity (tumor growth vs control) [2]: no antitumor activity

(1:2 mol:mol) calcium pterin
tumor growth inhibition relative to controls (FIG. 9) [3]: significant tumor growth inhibition
MDA-MB-231 xenograph growth inhibition [4]: significantly inhibit
IL-5 (plasma cytokines [5]; 2nd experiment, 25 mg/kg/d): 4.4 ± .9 pg/mL
IFN-γ (plasma cytokines [5]; [6]): 16.1 ± 12.9 pg/mL
IL-12 (plasma cytokines [5]; [6]): 315.2 ± 71.0 pg/mL
IL-6 (plasma cytokines [5]; 2nd experiment, 25 mg/kg/d): 31.6 ± 9.2 pg/mL
IL-1β (plasma cytokines [5]; 2nd experiment, 25 mg/kg/d): 4.9 ± .5 pg/mL
IL-10 (plasma cytokines [5]; 2nd experiment, 25 mg/kg/d): 30.2 ± 5.6 pg/mL
increases in plasma IL-12 (FIG. 10) (plasma cytokines [5]; at the dosages tested): lower, non-significant increases

O.O.[Ca+2].[Cl-].[Cl-] [CaCl2•2H2O, calcium chloride dihydrate, reference compound]
MDA-MB-231 xenograph growth inhibition [4]: significantly inhibit
plasma IL-12 versus control (FIG. 10) (plasma cytokines [5]; 4.2 mg/(kg day)): significantly elevated
IL-5 (plasma cytokines [5]; [7]): 10.3 ± 2.4 pg/mL
IFN-γ (plasma cytokines [5]; [8]): 9.7 ± 3.3 pg/mL
IL-4 (plasma cytokines [5]; [8]): 3.6 ± .3 pg/mL
IL-12 (plasma cytokines [5]; [8]): 904.9 ± 156.9 pg/mL
IL-6 (plasma cytokines [5]; [7]): 44.4 ± 15.4 pg/mL
IL-1β (plasma cytokines [5]; [7]): 6.4 ± .9 pg/mL
IL-2 (plasma cytokines [5]; 2nd experiment, CaCl2 group, 4.2 mg/kg/day, limit of detection 12.6): 12.7 ± .13 pg/mL
IL-10 (plasma cytokines [5]; [7]): 26.5 ± 1.9 pg/mL
TGF-β1 (plasma cytokines [5]; 2nd experiment, CaCl2 group, 4.2 mg/kg/day, limit of detection 31.2): 74.3 ± 35.0 pg/mL
